Measurements as given in patent US20100075965A1, “PI3 KINASE INHIBITORS AND METHODS OF THEIR USE” (Novartis AG, priority 2006, published 2010).
pIC50: −log10 of the molar value.

Biological target: PI3 K Alpha (Homo sapiens, UniProt P42336)
Test: PI3 kinase phosphorylation assays (homogenous solution phase, one step solid phase, ATP depletion/KinaseGlo)
Type: biochemical
Conditions: ATP depletion assay; read-out: PI3 K Alpha IC50
Protocol: Compounds to be tested are dissolved in DMSO and directly distributed into 384-well flashplates at 1.25 μL per well. To start the reaction, 20 μL of 6 nM PI3 kinase are added into each well followed by 20 μL of 400 nM ATP containing a trace of radiolabeled ATP and 900 nM 1-alpha-phosphatidylinositol (PI). The plates are briefly centrifuged to remove any air gap. The reaction is performed for 15 minutes and then stopped by the addition of 20 μL of 100 mM EDTA. The stopped reaction is incubated overnight at RT to allow the lipid substrate to bind by hydrophobic interaction to the surface of the flashplate. The liquid in the wells is then washed away, and the labeled substrate is detected with scintillation counting.
This method is similar to Assay 1 except that the lipid substrate (1-alpha-phosphatidylinositol (PI)) is first dissolved in a coating buffer and incubated on flashplate at room temperature overnight to allow the lipid substrate to bind by hydrophobic interaction to the surface of the flashplate. Unbound substrate is then washed away. On the day of assay, 20 μL of 6 nM PI3 kinase are added into each well followed by 20 μL of 400 nM ATP containing trace of radiolabeled ATP. Compounds are added together with enzyme and ATP to the lipid-coated plates. The plates are briefly centrifuged to remove any air gap. The reaction is performed for two to three hours. The reaction is stopped by addition of 20 μL of 100 mM EDTA or by immediate plate washing. Phosphorylated lipid substrate is detected by scintillation counting.
Compounds to be tested are dissolved in DMSO and directly distributed into a black 384-well plate at 1.25 μL per well. To start the reaction, 25 μL of 10 nM PI3 kinase and 5 μg/mL 1-alpha-phosphatidylinositol (PI) are added into each well followed by 25 μL of 2 μM ATP. The reaction is performed until approx 50% of the ATP is depleted, and then stopped by the addition of 25 μL of KinaseGlo solution. The stopped reaction is incubated for 5 minutes and the remaining ATP is then detected via luminescence.

Sequence of PI3 K Alpha (P42336 whole entry): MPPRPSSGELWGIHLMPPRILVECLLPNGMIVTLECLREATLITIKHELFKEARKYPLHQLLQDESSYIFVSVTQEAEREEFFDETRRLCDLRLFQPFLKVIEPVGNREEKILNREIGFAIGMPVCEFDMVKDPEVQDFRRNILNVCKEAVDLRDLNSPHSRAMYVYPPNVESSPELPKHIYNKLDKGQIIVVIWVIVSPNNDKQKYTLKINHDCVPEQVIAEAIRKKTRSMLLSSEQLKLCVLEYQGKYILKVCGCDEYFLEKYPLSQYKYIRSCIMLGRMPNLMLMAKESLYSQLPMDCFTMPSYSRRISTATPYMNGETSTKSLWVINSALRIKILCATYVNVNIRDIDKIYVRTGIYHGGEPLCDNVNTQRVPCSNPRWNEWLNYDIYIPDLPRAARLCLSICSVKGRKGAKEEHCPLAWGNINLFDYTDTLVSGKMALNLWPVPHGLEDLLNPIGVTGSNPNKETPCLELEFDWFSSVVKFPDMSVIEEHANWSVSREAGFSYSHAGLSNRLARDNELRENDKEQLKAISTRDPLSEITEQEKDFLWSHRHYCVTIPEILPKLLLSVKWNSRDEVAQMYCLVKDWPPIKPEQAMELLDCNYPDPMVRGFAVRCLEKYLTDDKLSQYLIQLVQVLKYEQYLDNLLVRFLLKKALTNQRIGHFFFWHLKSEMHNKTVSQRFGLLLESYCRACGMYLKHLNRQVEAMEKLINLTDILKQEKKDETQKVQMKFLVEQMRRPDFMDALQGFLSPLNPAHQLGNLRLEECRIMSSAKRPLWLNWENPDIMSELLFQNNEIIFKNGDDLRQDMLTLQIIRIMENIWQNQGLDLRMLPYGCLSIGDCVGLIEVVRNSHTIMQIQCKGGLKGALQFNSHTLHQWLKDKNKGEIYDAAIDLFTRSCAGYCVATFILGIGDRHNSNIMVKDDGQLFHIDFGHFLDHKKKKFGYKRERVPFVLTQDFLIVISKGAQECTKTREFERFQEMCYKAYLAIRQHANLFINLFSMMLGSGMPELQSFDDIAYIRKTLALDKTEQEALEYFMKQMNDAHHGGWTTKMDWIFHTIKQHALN
Sequence of PI3 K Alpha (P27986 whole entry partner): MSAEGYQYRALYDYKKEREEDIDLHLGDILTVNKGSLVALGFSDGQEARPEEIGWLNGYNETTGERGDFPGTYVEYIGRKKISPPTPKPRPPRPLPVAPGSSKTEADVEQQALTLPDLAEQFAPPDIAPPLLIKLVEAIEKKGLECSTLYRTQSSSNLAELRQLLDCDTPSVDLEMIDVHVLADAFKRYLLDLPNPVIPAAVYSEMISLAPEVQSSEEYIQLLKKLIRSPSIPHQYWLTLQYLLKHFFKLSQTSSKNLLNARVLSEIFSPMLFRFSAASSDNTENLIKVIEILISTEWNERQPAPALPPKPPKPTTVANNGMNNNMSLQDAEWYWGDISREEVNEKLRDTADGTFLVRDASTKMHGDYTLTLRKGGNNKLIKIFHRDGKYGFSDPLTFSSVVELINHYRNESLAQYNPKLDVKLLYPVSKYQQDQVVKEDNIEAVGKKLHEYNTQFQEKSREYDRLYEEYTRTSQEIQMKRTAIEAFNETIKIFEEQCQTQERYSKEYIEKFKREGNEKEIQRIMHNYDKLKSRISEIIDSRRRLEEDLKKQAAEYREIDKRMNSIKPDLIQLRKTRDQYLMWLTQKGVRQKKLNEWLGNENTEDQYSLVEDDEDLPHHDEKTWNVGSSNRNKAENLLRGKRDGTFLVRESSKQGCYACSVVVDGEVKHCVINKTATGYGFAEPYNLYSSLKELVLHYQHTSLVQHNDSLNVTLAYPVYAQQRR

| SMILES | pIC50 |
| --- | --- |
| CC(=O)Nc1nc2ccc(-c3ccc(NC4CCOCC4)nc3)cc2s1 [Example 2-17, N-{6-[6-(Tetrahydro-pyran-4-ylamino)-pyridin-3-yl]-benzothiazol-2-yl}-acetamide] | > 6.00 |
| CC(=O)Nc1nc2ccc(-c3ccc(NC4CCNCC4)nc3)cc2s1 [Example 2-19, N-{6-[6-(Piperidin-4-ylamino)-pyridin-3-yl]-benzothiazol-2-yl}-acetamide] | > 6.00 |
| Nc1ccc(-c2ccc3nc(NC(=O)OCCN4CCCCC4)sc3c2)cn1 [Example 2-20, [6-(6-Amino-pyridin-3-yl)-benzothiazol-2-yl]-carbamic acid 2-piperidin-1-yl-ethyl ester] | > 6.00 |
| CC(=O)Nc1nc2ccc(-c3cnc(NC(C)=O)c(C(F)(F)F)c3)cc2s1 [Example 2-22, N-[6-(6-Acetylamino-5-trifluoromethyl-pyridin-3-yl)-bezothiazol-2-yl]-acetamide] | > 6.00 |
| Nc1cccc(C(=O)Nc2nc3ccc(-c4cnc(N)c(C(F)(F)F)c4)cc3s2)n1 [Example 2-35, 6-amino-N-(6-(6-amino-5-(trifluoromethyl)pyridin-3-yl)benzo[d]thiazol-2-yl)picolinamide] | > 5.00 |
| Nc1cc(C(=O)Nc2nc3ccc(-c4cnc(N)c(C(F)(F)F)c4)cc3s2)ccn1 [Example 2-36, 2-amino-N-(6-(6-amino-5-(trifluoromethyl)pyridin-3-yl)benzo[d]thiazol-2-yl)isonicotinamide] | > 6.00 |

Same assay, conditions: read-out: PI3K Alpha IC50

| SMILES | pIC50 |
| --- | --- |
| CC(=O)Nc1nc2ccc(-c3ccc(N)nc3)cn2c1Br [Example 14, N-[6-(6-Amino-pyridin-3-yl)-3-bromo-imidazo[1,2-a]pyridin-2-yl]-acetamide] | > 5.00 |
| CCN(CC)CCCc1c(NC(C)=O)nc2ccc(-c3cnc(N)c(C(F)(F)F)c3)cn12 [Example 17, N-[6-(6-Amino-5-trifluoromethyl-pyridin-3-yl)-3-(3-diethylamino-propyl)-imidazo[1,2-a]pyridin-2-yl]-acetamide] | > 5.00 |
| CC(=O)Nc1nc2ccc(-c3cnc(N)c(C(F)(F)F)c3)cn2c1C(C)=O [Example 20, N-[3-Acetyl-6-(6-amino-5-trifluoromethyl-pyridin-3-yl)-imidazo[1,2-a]pyridin-2-yl]-acetamide] | > 5.00 |
| CC(=O)Nc1cn2cc(-c3cnc(N)cc3C(F)(F)F)ccc2n1 [Example 22, N-[6-(6-Amino-4-trifluoromethyl-pyridin-3-yl)-imidazo[1,2-a]pyridin-2-yl]-acetamide] | > 5.00 |
| CC(=O)Nc1cn2cc(-c3cnc(N)c(C(F)(F)F)c3)cc(C)c2n1 [Example 34, N-(6-(6-amino-5-(trifluoromethyl)pyridin-3-yl)-8-methylimidazo[1,2-a]pyridin-2-yl)acetamide] | < 4.60 |
| CC(=O)Nc1cn2c(-c3cnc(N)c(C(F)(F)F)c3)c(-c3cnc(N)c(C(F)(F)F)c3)ccc2n1 [Example 35, N-(5,6-bis(6-amino-5-(trifluoromethyl)pyridin-3-yl)imidazo[1,2-a]pyridin-2-yl)acetamide] | < 4.60 |
| CC(=O)N1CCCC[C@@H]1C(=O)Nc1cn2cc(-c3cnc(N)c(C(F)(F)F)c3)ccc2n1 [Example 47, (R)-1-acetyl-N-(6-(6-amino-5-(trifluoromethyl)pyridin-3-yl)imidazo[1,2-a]pyridin-2-yl)piperidine-2-carboxamide] | > 5.00 |
| CC(=O)Nc1cn2cc(-c3cnc(N)nc3N)ccc2n1 [Example 48, N-(6-(2,4-diaminopyrimidin-5-yl)imidazo[1,2-a]pyridin-2-yl)acetamide] | > 5.00 |
| Nc1ncc(-c2ccc3nc(NC(=O)N4CCC[C@H]4C(=O)O)cn3c2)cc1C(F)(F)F [Example 49, (S)-1-(6-(6-amino-5-(trifluoromethyl)pyridin-3-yl)imidazo[1,2-a]pyridin-2-ylcarbamoyl) pyrrolidine-2-carboxylic acid] | > 5.00 |
| Nc1ncc(-c2ccc3nc(NC(=O)c4ccccc4C(=O)O)cn3c2)cc1C(F)(F)F [Example 50, 2-(6-(6-amino-5-(trifluoromethyl)pyridin-3-yl)imidazo[1,2-a]pyridin-2-ylcarbamoyl) benzoic acid] | > 5.00 |
| N#C/N=C(\N)NCCCC(=O)Nc1cn2nc(-c3cnc(N)c(C(F)(F)F)c3)ccc2n1 [Example 258, (E)-N-(6-(6-amino-5-(trifluoromethyl)pyridin-3-yl)imidazo[1,2-b]pyridazin-2-yl)-4-(2-cyanoguanidino) butanamide] | > 6.00 |
| CC(=O)Nc1cn2cc(-c3cnc(N)c(O[C@@H](C)C(F)(F)F)n3)cc(F)c2n1 [Example 259, (S)-N-(6-(5-amino-6-(1,1,1-trifluoropropan-2-yloxy)pyrazin-2-yl)-8-fluoroimidazo [1,2-a]pyridin-2-yl)acetamide] | > 6.00 |
| CC(=O)Nc1cn2nc(-c3cnc(N)c(-c4ccccc4Cl)c3)ccc2n1 [Example 260, N-(6-(6-amino-5-(2-chlorophenyl)pyridin-3-yl)imidazo[1,2-b]pyridazin-2-yl)acetamide] | > 6.00 |
| CC(=O)Nc1cn2cc(-c3cnc(N)c(Oc4cccc(F)c4)n3)cc(F)c2n1 [Example 261, N-(6-(5-amino-6-(3-fluorophenoxy)pyrazin-2-yl)-8-fluoroimidazo [1,2-a]pyridin-2-yl)acetamide] | > 6.00 |
| Nc1ncc(-c2ccc3nc(NC(=O)C4CCC(=O)N4)cn3c2)cc1C(F)(F)F (stereo not drawn) [Example 262, N-(6-(6-amino-5-(trifluoromethyl)pyridin-3-yl)imidazo[1,2-a]pyridin-2-yl)-5-oxopyrrolidine-2-carboxamide] | > 6.00 |
| CC(=O)Nc1cn2cc(-c3cnc(N)c(OC(F)F)c3)ccc2n1 [Example 263, N-(6-(6-amino-5-(difluoromethoxy)pyridin-3-yl)imidazo[1,2-a]pyridin-2-yl)acetamide] | > 6.00 |
| Nc1ncc(-c2ccc3nc(NC(=O)[C@H]4CCC(=O)O4)cn3c2)cc1C(F)(F)F [Example 264, (R)-N-(6-(6-amino-5-(trifluoromethyl)pyridin-3-yl)imidazo[1,2-a]pyridin-2-yl)-5-oxotetrahydro furan-2-carboxamide] | > 6.00 |
| CC(=O)Nc1cn2cc(-c3cnc(N)c(O[C@H](C)C(F)(F)F)n3)cc(F)c2n1 [Example 265, (R)-N-(6-(5-amino-6-(1,1,1-trifluoropropan-2-yloxy)pyrazin-2-yl)-8-fluoroimidazo [1,2-a]pyridin-2-yl)acetamide] | > 6.00 |
| Nc1ncc(-c2ccc3nc(NC(=O)C4CCCC(=O)N4)cn3c2)cc1C(F)(F)F (stereo not drawn) [Example 266, N-(6-(6-amino-5-(trifluoromethyl)pyridin-3-yl)imidazo[1,2-a]pyridin-2-yl)-6-oxo-piperidine-2-carboxamide] | > 6.00 |
| CC(=O)Nc1cn2cc(-c3cnc(N)c(S(=O)(=O)N4CCC(Oc5ccc(F)cc5)CC4)c3)ccc2n1 [Example 267, N-(6-(6-amino-5-(4-(4-fluorophenoxy)piperidin-1-ylsulfonyl)pyridin-3-yl)imidazo[1,2-a]pyridin-2-yl)acetamide] | > 6.00 |
| Nc1ncc(-c2ccc3nc(NC(=O)[C@@H]4CCC(=O)O4)cn3c2)cc1C(F)(F)F [Example 268] | > 6.00 |
| Nc1ncc(-c2ccc3nc(NC(=O)c4cccc(-c5nn[nH]n5)c4)cn3c2)cc1C(F)(F)F [Example 269, N-(6-(6-amino-5-(trifluoromethyl)pyridin-3-yl)imidazo[1,2-a]pyridin-2-yl)-3-(2H-tetrazol-5-yl)benzamide] | > 6.00 |
| Nc1ncc(-c2ccc3nc(NC(=O)C4CCC(=O)NC4)cn3c2)cc1C(F)(F)F (stereo not drawn) [Example 270, N-(6-(6-amino-5-(trifluoromethyl)pyridin-3-yl)imidazo[1,2-a]pyridin-2-yl)-6-oxopiperidine-3-carboxamide] | > 6.00 |
| Nc1ncc(-c2ccc3nc(NC(=O)[C@@H](O)CCC(=O)O)cn3c2)cc1C(F)(F)F [Example 272, (S)-5-(6-(6-amino-5-(trifluoromethyl)pyridin-3-yl)imidazo[1,2-a]pyridin-2-ylamino)-4-hydroxy-5-oxopentanoic acid] | > 6.00 |
| Nc1ncc(-c2ccc3nc(NC(=O)N4CCCC4Cc4ccccn4)cn3c2)cc1C(F)(F)F (stereo not drawn) [Example 273, N-(6-(6-amino-5-(trifluoromethyl)pyridin-3-yl)imidazo[1,2-a]pyridin-2-yl)-2-(pyridin-2-ylmethyl) pyrrolidine-1-carboxamide] | > 6.00 |
| Nc1ncc(-c2ccc3nc(NC(=O)N4CCCC4c4ccco4)cn3c2)cc1C(F)(F)F (stereo not drawn) [Example 274, N-(6-(6-amino-5-(trifluoromethyl)pyridin-3-yl)imidazo[1,2-a]pyridin-2-yl)-2-(furan-2-yl)pyrrolidine-1-carboxamide] | > 6.00 |
| Nc1ncc(-c2ccc3nc(NC(=O)N4CCCC4c4nccs4)cn3c2)cc1C(F)(F)F (stereo not drawn) [Example 275, N-(6-(6-amino-5-(trifluoromethyl)pyridin-3-yl)imidazo[1,2-a]pyridin-2-yl)-2-(thiazol-2-yl)pyrrolidine-1-carboxamide] | > 6.00 |
